Entries after “also recorded” stand apart in the source; their conditions may differ.

These results are taken from US20100331203A1, “AROMATASE EXPRESSION PREDICTS SURVIVAL IN WOMEN WITH NON-SMALL CELL LUNG CANCER” (THE REGENTS OF THE UNIVERSITY OF CALIFORNIA, priority 2007, published 2010).

The subject of one test is NSCLC cells. Conditions: cited from earlier work.
The test system of a further test is human NSCLC xenograph. Conditions: in vivo; cited from earlier work.
For a further test, the system named is A549 lung tumor cells. The experiment in a line: A549 non-small cell lung tumor xenografts in ovariectomized female athymic mice. Type of test: in vivo. Conditions: daily subcutaneous treatment, 5 animals per group, P<0.001. An excerpt: FIG. 1. Growth-promoting effects of estrogen and aromatase substrate on non-small cell lung tumor xenografts in vivo. A549 lung tumor cells which express endogenous aromatase were implanted as subcutaneous xenografts in ovariectomized female athymic mice. Mice were then divided into 3 groups (5 animals per group). ▪ Animals were given daily subcutaneous treatments of the aromatase substrate androstenedione as before (see, e.g. Weinberg et al., Cancer Res 2005; 65:11287-91). […] Animals were given daily subcutaneous treatments of estradiol in a biodegradable binder as described (see, e.g. Pietras et al., Oncogene 1995; 10:2435-46). ▴ Control animals were supplemented with subcutaneous injection of vehicle alone.
In this study we examined aromatase, a key enzyme in the estrogen synthesis pathway. We hypothesized that expression of aromatase in lung cancer cells could result in a focal increase in estrogen levels and serve to promote tumor development and/or progression. […] To further assess estrogen signaling in NSCLC in vivo, we implanted A549 lung tumor cells which express endogenous aromatase in ovariectomized female athymic mice.
The protocol used for implantation of human lung tumor xenografts in nude mice was described previously (see, e.g. Weinberg et al., Cancer Res 2005; 65:11287-91; Pietras et al., Oncogene 1995; 10:2435-46). […]

For test [1] the following is noted: exemestane cohort compared to women maintained on tamoxifen; cited from earlier work.

On to `C[C@]12CC[C@@H]3c4ccc(O)cc4C[C@@H](CCCCCCCCC[S+]([O-])CCCC(F)(F)C(F)(F)F)[C@H]3[C@@H]1CC[C@@H]2O` (stereo partly shown) [Faslodex, fulvestrant], for which the “Effect on 17β-estradiol-induced mitogenesis and gene transcription in NSCLC cells” value in the test with NSCLC cells (ER antagonist) is listed as “inhibited”. The “Tumor formation in human NSCLC xenograph model” value with human NSCLC xenograph was “inhibited”.
Take `C[C@]12CC[C@@H]3c4ccc(O)cc4CC[C@H]3[C@@H]1CC[C@@H]2O` [estradiol, 17β-estradiol]: the “Growth of A549 tumors compared to control animals” value with A549 lung tumor cells is listed as “significantly increased”. In the test with NSCLC cells (in vitro and in vivo models), the “Gene transcription in NSCLC cells” value is on record as “stimulates” and the “Mitogenic effect on NSCLC cells” value was “mitogenic”.
As to `C[C@]12CCC(=O)C=C1CC[C@@H]1[C@@H]2CC[C@]2(C)C(=O)CC[C@@H]12` [androstenedione], the “Growth of A549 tumors compared to control animals” value in the test with A549 lung tumor cells is “significantly increased; also recorded: significantly enhanced tumor growth”.
Consider `C=C1C[C@@H]2[C@H](CC[C@]3(C)C(=O)CC[C@@H]23)[C@@]2(C)C=CC(=O)C=C12` [exemestane], for which the “Subsequent development of primary lung cancer” value in test [1] is listed as “reduction”.
